Reference: PubChem BioAssay (NCI)
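Assay format: 96-well plates, 48-hour exposure. GI50 is the concentration that inhibits growth by half. TGI: concentration producing complete growth inhibition.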

Experiments:
Test in all cases: NCI-60 cell line screen, 48 h
786-0 renal = tested on: 786-0 renal
A498 renal = tested on: A498 renal
A549 NSCLC = tested on: A549 NSCLC
ACHN renal = tested on: ACHN renal
BT-549 breast = tested on: BT-549 breast
CAKI-1 renal = tested on: CAKI-1 renal
CCRF-CEM leukemia = tested on: CCRF-CEM leukemia
COLO 205 colon = tested on: COLO 205 colon
HCC-2998 colon = tested on: HCC-2998 colon
HCT-116 colon = tested on: HCT-116 colon
HCT-15 colon = tested on: HCT-15 colon
HL-60(TB) leukemia = tested on: HL-60(TB) leukemia
HOP-62 NSCLC = tested on: HOP-62 NSCLC
HS 578T breast = tested on: HS 578T breast
HT29 colon = tested on: HT29 colon
IGROV1 ovarian = tested on: IGROV1 ovarian
K-562 leukemia = tested on: K-562 leukemia
KM12 colon = tested on: KM12 colon
LOX IMVI melanoma = tested on: LOX IMVI melanoma
M14 melanoma = tested on: M14 melanoma
MALME-3M melanoma = tested on: MALME-3M melanoma
MCF7 breast = tested on: MCF7 breast
MDA-MB-231 breast = tested on: MDA-MB-231 breast
MDA-MB-435 = tested on: MDA-MB-435
MOLT-4 leukemia = tested on: MOLT-4 leukemia
NCI-H226 lung = tested on: NCI-H226 lung
NCI-H23 lung = tested on: NCI-H23 lung
NCI-H460 lung = tested on: NCI-H460 lung
NCI-H522 lung = tested on: NCI-H522 lung
NCI/ADR-RES ovarian = tested on: NCI/ADR-RES ovarian
OVCAR-3 ovarian = tested on: OVCAR-3 ovarian
OVCAR-4 ovarian = tested on: OVCAR-4 ovarian
OVCAR-5 ovarian = tested on: OVCAR-5 ovarian
OVCAR-8 ovarian = tested on: OVCAR-8 ovarian
PC-3 prostate = tested on: PC-3 prostate
RPMI-8226 leukemia = tested on: RPMI-8226 leukemia
RXF 393 renal = tested on: RXF 393 renal
SF-268 CNS = tested on: SF-268 CNS
SF-539 CNS = tested on: SF-539 CNS
SK-MEL-2 melanoma = tested on: SK-MEL-2 melanoma
SK-MEL-28 melanoma = tested on: SK-MEL-28 melanoma
SK-MEL-5 melanoma = tested on: SK-MEL-5 melanoma
SK-OV-3 ovarian = tested on: SK-OV-3 ovarian
SN12C renal = tested on: SN12C renal
SNB-19 CNS = tested on: SNB-19 CNS
SR leukemia = tested on: SR leukemia
SW-620 colon = tested on: SW-620 colon
T-47D breast = tested on: T-47D breast
TK-10 renal = tested on: TK-10 renal
U251 CNS = tested on: U251 CNS
UACC-257 melanoma = tested on: UACC-257 melanoma
UACC-62 melanoma = tested on: UACC-62 melanoma
UO-31 renal = tested on: UO-31 renal

Work on COc1cc(-c2cc(/C=C/C(=O)c3ccc(F)c(F)c3)[nH]n2)cc(OC)c1OC yielded a GI50 (786-0 renal) of 3.35 µM, a TGI (786-0 renal) of 15.7 µM and a GI50 (A498 renal) of 2.11 µM. For the same molecule, the TGI (A498 renal) was 7.13 µM, the GI50 (A549 NSCLC) was 2.43 µM and the TGI (A549 NSCLC) was 9.9 µM. For the same molecule, the GI50 (ACHN renal) was 3.26 µM, the TGI (ACHN renal) was over 100 µM and the GI50 (BT-549 breast) was 4.1 µM. The TGI (BT-549 breast) was 19.3 µM, the GI50 (CAKI-1 renal) was 2.98 µM and the TGI (CAKI-1 renal) was over 100 µM. The GI50 (CCRF-CEM leukemia) was 3.08 µM, the TGI (CCRF-CEM leukemia) was 47.2 µM and the GI50 (COLO 205 colon) was 1.69 µM. It also gave a TGI (COLO 205 colon) of 3.19 µM, a GI50 (HCC-2998 colon) of 3.69 µM and a TGI (HCC-2998 colon) of 34.1 µM. For the same molecule, the GI50 (HCT-116 colon) was 4 µM, the TGI (HCT-116 colon) was 13.9 µM and the GI50 (HCT-15 colon) was 3.01 µM. The TGI (HCT-15 colon) was over 100 µM, the GI50 (HL-60(TB) leukemia) was 2.48 µM and the TGI (HL-60(TB) leukemia) was 6.03 µM. It also gave a GI50 (HOP-62 NSCLC) of 4.39 µM, a TGI (HOP-62 NSCLC) of over 100 µM and a GI50 (HS 578T breast) of 3.58 µM. The TGI (HS 578T breast) was 36.8 µM, the GI50 (HT29 colon) was 2.62 µM and the TGI (HT29 colon) was 6.47 µM. For the same molecule, the GI50 (IGROV1 ovarian) was 3.62 µM, the TGI (IGROV1 ovarian) was 87 µM and the GI50 (K-562 leukemia) was 3.31 µM. For the same molecule, the TGI (K-562 leukemia) was 16.5 µM, the GI50 (KM12 colon) was 3.06 µM and the TGI (KM12 colon) was 11.4 µM. The GI50 (LOX IMVI melanoma) was 3.18 µM, the TGI (LOX IMVI melanoma) was 12.2 µM and the GI50 (M14 melanoma) was 2.7 µM. The TGI (M14 melanoma) was 11.9 µM, the GI50 (MALME-3M melanoma) was 2.96 µM and the TGI (MALME-3M melanoma) was 9.4 µM. For the same molecule, the GI50 (MCF7 breast) was 3.2 µM, the TGI (MCF7 breast) was 12.3 µM and the GI50 (MDA-MB-231 breast) was 1.64 µM. The TGI (MDA-MB-231 breast) was 4.58 µM, the GI50 (MDA-MB-435) was 2.88 µM and the TGI (MDA-MB-435) was 13.3 µM. The GI50 (MOLT-4 leukemia) was 2.72 µM, the TGI (MOLT-4 leukemia) was 9.09 µM and the GI50 (NCI-H226 lung) was 3.72 µM. For the same molecule, the TGI (NCI-H226 lung) was 15.8 µM, the GI50 (NCI-H23 lung) was 2.6 µM and the TGI (NCI-H23 lung) was 8.5 µM. It also gave a GI50 (NCI-H460 lung) of 2.96 µM, a TGI (NCI-H460 lung) of 8.24 µM and a GI50 (NCI-H522 lung) of 1.57 µM. The TGI (NCI-H522 lung) was 4.48 µM, the GI50 (NCI/ADR-RES ovarian) was 3.46 µM and the TGI (NCI/ADR-RES ovarian) was 50.5 µM. The GI50 (OVCAR-3 ovarian) was 2.39 µM, the TGI (OVCAR-3 ovarian) was 6.25 µM and the GI50 (OVCAR-4 ovarian) was 2.2 µM. It also gave a TGI (OVCAR-4 ovarian) of 71.7 µM, a GI50 (OVCAR-5 ovarian) of 4.49 µM and a TGI (OVCAR-5 ovarian) of 33.8 µM. The GI50 (OVCAR-8 ovarian) was 2.88 µM, the TGI (OVCAR-8 ovarian) was 17.3 µM and the GI50 (PC-3 prostate) was 1.66 µM. It also gave a TGI (PC-3 prostate) of 5.72 µM, a GI50 (RPMI-8226 leukemia) of 1.76 µM and a TGI (RPMI-8226 leukemia) of 6 µM. The GI50 (RXF 393 renal) was 2.05 µM, the TGI (RXF 393 renal) was 6.34 µM and the GI50 (SF-268 CNS) was 3.15 µM. For the same molecule, the TGI (SF-268 CNS) was over 100 µM, the GI50 (SF-539 CNS) was 3.76 µM and the TGI (SF-539 CNS) was 17.7 µM. For the same molecule, the GI50 (SK-MEL-2 melanoma) was 2.3 µM, the TGI (SK-MEL-2 melanoma) was 5.89 µM and the GI50 (SK-MEL-28 melanoma) was 5.31 µM. The TGI (SK-MEL-28 melanoma) was 28.2 µM, the GI50 (SK-MEL-5 melanoma) was 2.27 µM and the TGI (SK-MEL-5 melanoma) was 6.41 µM. It also gave a GI50 (SK-OV-3 ovarian) of 3.53 µM, a TGI (SK-OV-3 ovarian) of 58.6 µM and a GI50 (SN12C renal) of 3.37 µM. The TGI (SN12C renal) was 25.5 µM, the GI50 (SNB-19 CNS) was 3.64 µM and the TGI (SNB-19 CNS) was over 100 µM. It also gave a GI50 (SR leukemia) of 2.92 µM, a TGI (SR leukemia) of over 100 µM and a GI50 (SW-620 colon) of 3.42 µM. It also gave a TGI (SW-620 colon) of over 100 µM, a GI50 (T-47D breast) of 2.45 µM and a TGI (T-47D breast) of 27 µM. It also gave a GI50 (TK-10 renal) of 2.29 µM, a TGI (TK-10 renal) of 7.41 µM and a GI50 (U251 CNS) of 2.9 µM. The TGI (U251 CNS) was 15.7 µM, the GI50 (UACC-257 melanoma) was 1.75 µM and the TGI (UACC-257 melanoma) was 6.28 µM. It also gave a GI50 (UACC-62 melanoma) of 2.38 µM, a TGI (UACC-62 melanoma) of 7.44 µM and a GI50 (UO-31 renal) of 2.63 µM. The TGI (UO-31 renal) was 14.2 µM.
